Measured values from patent publication US12581252B2, “Substituted pyrrolo[3,4-b]pyridines as PI3K-α inhibitors” (Relay Therapeutics, Inc., priority 2020, dated 2026).

Target: H1047R PIK3CA enzyme (Homo sapiens, UniProt P42336, H1047R)
Experiment: ADP-Glo Biochemical PIK3CA Kinase Assay

Chain of H1047R PIK3CA enzyme (P42336 whole entry H1047R): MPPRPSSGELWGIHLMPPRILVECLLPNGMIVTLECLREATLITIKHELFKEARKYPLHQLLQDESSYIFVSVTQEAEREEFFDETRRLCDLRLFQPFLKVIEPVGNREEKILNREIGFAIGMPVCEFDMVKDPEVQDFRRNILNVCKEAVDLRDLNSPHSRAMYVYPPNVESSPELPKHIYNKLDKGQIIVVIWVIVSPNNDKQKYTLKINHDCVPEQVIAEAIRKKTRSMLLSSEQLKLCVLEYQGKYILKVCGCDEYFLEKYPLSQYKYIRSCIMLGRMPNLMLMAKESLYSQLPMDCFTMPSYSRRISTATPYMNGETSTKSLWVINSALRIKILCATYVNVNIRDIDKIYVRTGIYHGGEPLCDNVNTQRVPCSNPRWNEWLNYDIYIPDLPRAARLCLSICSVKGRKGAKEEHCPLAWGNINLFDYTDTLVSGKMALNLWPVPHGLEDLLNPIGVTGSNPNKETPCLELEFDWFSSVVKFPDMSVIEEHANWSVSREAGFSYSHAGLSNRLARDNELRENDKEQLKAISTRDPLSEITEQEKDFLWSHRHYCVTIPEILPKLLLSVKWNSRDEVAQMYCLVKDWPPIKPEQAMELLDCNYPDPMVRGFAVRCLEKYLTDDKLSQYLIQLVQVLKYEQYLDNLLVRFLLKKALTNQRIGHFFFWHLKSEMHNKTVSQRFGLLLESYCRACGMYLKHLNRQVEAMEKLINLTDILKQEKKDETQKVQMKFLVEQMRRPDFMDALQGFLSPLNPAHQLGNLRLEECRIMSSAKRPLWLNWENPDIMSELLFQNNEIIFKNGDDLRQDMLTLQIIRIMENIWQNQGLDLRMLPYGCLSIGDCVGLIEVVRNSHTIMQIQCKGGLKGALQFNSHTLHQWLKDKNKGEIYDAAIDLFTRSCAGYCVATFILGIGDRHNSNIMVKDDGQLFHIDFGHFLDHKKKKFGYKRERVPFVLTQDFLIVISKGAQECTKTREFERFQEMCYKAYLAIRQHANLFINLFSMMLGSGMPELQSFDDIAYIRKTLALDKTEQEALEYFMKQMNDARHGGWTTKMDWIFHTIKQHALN
Chain of H1047R PIK3CA enzyme (P27986 whole entry partner): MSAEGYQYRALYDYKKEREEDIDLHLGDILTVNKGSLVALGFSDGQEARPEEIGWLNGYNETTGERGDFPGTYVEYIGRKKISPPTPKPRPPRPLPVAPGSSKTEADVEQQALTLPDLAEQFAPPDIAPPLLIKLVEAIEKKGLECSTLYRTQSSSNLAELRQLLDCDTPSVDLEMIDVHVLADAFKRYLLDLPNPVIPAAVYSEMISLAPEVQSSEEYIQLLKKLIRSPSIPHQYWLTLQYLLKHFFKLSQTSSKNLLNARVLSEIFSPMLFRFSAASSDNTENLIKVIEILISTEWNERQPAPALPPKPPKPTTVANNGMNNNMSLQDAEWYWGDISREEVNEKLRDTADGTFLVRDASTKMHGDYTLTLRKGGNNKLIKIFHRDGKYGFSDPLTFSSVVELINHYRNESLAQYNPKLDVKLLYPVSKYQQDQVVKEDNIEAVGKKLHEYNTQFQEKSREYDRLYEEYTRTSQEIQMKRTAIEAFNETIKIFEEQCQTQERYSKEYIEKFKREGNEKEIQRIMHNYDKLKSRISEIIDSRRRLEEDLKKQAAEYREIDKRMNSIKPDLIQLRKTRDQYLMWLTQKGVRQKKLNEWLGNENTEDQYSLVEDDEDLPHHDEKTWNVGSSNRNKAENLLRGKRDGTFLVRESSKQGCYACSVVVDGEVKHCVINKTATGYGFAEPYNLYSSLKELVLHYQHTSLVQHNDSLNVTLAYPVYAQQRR

IC50 [µM] | Structure (SMILES)
10 to 100 | Nc1cc(-c2ccc3ncnn3c2)cc2c1C(c1cc(F)ccc1Cl)NC2=O (stereo not shown) [Compound I-1671]
0.1 to 0.5 | COc1cc(C(=O)Nc2cc(Br)cc3c2C(c2cc(F)ccc2Cl)NC3=O)cc(Cl)c1F (stereo not shown) [Compound I-991]
10 to 100 | CC(C)(C(=O)Nc1cc(Br)cc2c1C(c1cc(F)ccc1Cl)NC2=O)C(F)(F)F (stereo not shown) [Compound I-1620]
1 to 10 | O=C(Nc1cc(-c2cnn(C(F)F)c2)cc2c1[C@@H](c1cc(F)ccc1Cl)NC2=O)c1cc(F)cc(C(F)(F)F)c1 (single isomer, unassigned) [Compound I-1739]
10 to 100 | O=C1N[C@H](c2cc(F)ccc2Cl)c2c(NC(=O)N3C[C@H](O)c4cc(F)c(F)cc43)cccc21 (single isomer, unassigned) [Compound I-2292]
1 to 10 | O=C(Nc1cc(Br)cc2c1C(c1cc(F)ccc1Cl)NC2=O)c1ccccc1OC(F)(F)F (stereo not shown) [Compound I-571]
0.1 to 0.5 | Cc1ccccc1C1NC(=O)c2cncc(NC(=O)c3cc(F)cc(C(F)(F)F)c3)c21 (stereo not shown) [Compound I-233]
≤ 0.1 | O=C1NC(c2cc(F)ccc2Cl)c2c(NC(=O)N3CCc4ccc(F)cc43)cc(Br)cc21 (stereo not shown) [Compound I-1717]
10 to 100 | O=C(Nc1cccc2c1C(CO)NC2=O)c1cc(F)cc(C(F)(F)F)c1 (stereo not shown) [Compound I-1666]
1 to 10 | O=C(Nc1cc(-c2cn3ncnc3cn2)cc2c1[C@@H](c1cc(F)ccc1C(F)F)NC2=O)c1cc(F)cc(C(F)(F)F)c1 (single isomer, unassigned) [Compound I-2233]
≤ 0.1 | O=C(Nc1cc(-c2cccc3cccnc23)cc2c1C(c1cc(F)ccc1Cl)NC2=O)c1cc(F)cc(C(F)(F)F)c1 (stereo not shown) [Compound I-1045]
10 to 100 | O=C1N[C@H](c2cc(F)ccc2Cl)c2c(NC(=O)[C@@H]3CCC[C@H](OC(F)(F)F)C3)cccc21 (single isomer, unassigned) [Compound I-2213]
10 to 100 | [2H][C@]1(c2cc(F)ccc2Cl)NC(=O)c2cccc(NC(=O)N3C[C@](O)(C(F)(F)F)c4cc(F)ccc43)c21 (single isomer, unassigned) [Compound I-2684]
≤ 0.1 | Cn1c(=O)[nH]c2ccc(-c3cc(NC(=O)c4cc(F)cc(C(F)(F)F)c4)c4c(c3)C(=O)NC4c3cc(F)ccc3Cl)cc21 (stereo not shown) [Compound I-1044]
0.1 to 0.5 | COc1cc(C(=O)Nc2cc(Br)cc3c2C(c2cc(F)ccc2C(F)F)NC3=O)cc(F)c1F (stereo not shown) [Compound I-436]
10 to 100 | O=C1NC(c2cc(F)ccc2Cl)c2c(Nc3nccc4cc[nH]c34)cc(Br)cc21 (stereo not shown) [Compound I-1460]
10 to 100 | CC(=O)N1CCN(c2cc(-c3ccc4ncnn4c3)cc3c2C(c2cc(F)ccc2Cl)NC3=O)CC1 (stereo not shown) [Compound I-2047]
10 to 100 | O=C1NC(c2cc(F)ccc2Cl)c2c(NC(=O)C3(O)CCCC3)cc(-c3ccc4ncnn4c3)cc21 (stereo not shown) [Compound I-1813]
10 to 100 | CC1(c2ccccc2)NC(=O)c2cccc(NC(=O)c3csc4ccccc34)c21 (stereo not shown) [Compound I-130]
10 to 100 | O=C(Nc1ccccc1)c1cc(-c2ccc3ncnn3c2)cc2c1C(c1cc(F)ccc1Cl)NC2=O (stereo not shown) [Compound I-1897]
0.5 to 1 | O=C(Nc1cc(Br)cc2c1C(c1cc(F)ccc1Cl)NC2=O)c1cc(F)cc(Cl)c1O (stereo not shown) [Compound I-845]
1 to 10 | O=C1N[C@@H](c2cc(F)ccc2Cl)c2c(N[C@@H]3CCOc4ccccc43)cc(-c3cnn(C(F)F)c3)nc21 [Compound I-2081]

Continued, molecule first:

Structure (SMILES) | IC50 [µM]
O=C1N[C@@H](c2cc(F)ccc2Cl)c2c(NC(=O)[C@H]3C[C@H](O)C[C@@H](C(F)(F)F)C3)cccc21 (single isomer, unassigned) [Compound I-2177] | 1 to 10
Cc1ncc(-c2cc(NC(=O)c3cc(F)cc(Cl)c3)c3c(c2)C(=O)N[C@@H]3c2cc(F)ccc2Cl)cn1 [Compound I-895] | 10 to 100
Cc1ccccc1C1NC(=O)c2cccc(NC(=O)c3ncc4c(F)cc(F)cn34)c21 (stereo not shown) [Compound I-180, 6,8-Difluoro-N-(1-oxo-3-(o-tolyl)isoindolin-4-yl)imidazo[1,5-a]pyridine-3-carboxamide] | 10 to 100
O=C(Nc1cc(Br)cc2c1C(c1cc(F)ccc1Cl)NC2=O)c1ccc(F)cc1 (stereo not shown) [Compound I-525] | 10 to 100
CN1CC[C@H](Nc2cc(NC(=O)c3cc(F)cc(C(F)(F)F)c3)c3c(c2)C(=O)NC3c2cc(F)ccc2Cl)C1 (stereo partly shown) [Compound I-311] | ≤ 0.1
O=C(Nc1cc(Cc2ccc3c(c2)CNC3=O)cc2c1C(c1cc(F)ccc1Cl)NC2=O)c1cc(F)cc(C(F)(F)F)c1 (stereo not shown) [Compound I-1496] | ≤ 0.1
Cn1cc(C(=O)Nc2cccc3c2CNC3=O)c2ccccc21 [Compound I-403] | 10 to 100
O=C1NC(c2ccccc2Cl)c2c(NC(=O)c3coc4c(F)cc(F)cc34)ccnc21 (stereo not shown) [Compound I-209] | 0.5 to 1
O=C1N[C@H](c2cc(F)ccc2Cl)c2c(NC(=O)N3C[C@@](O)(C(F)F)c4ccccc43)cccc21 (single isomer, unassigned) [Compound I-2484] | 10 to 100
CS(=O)(=O)c1cc(-c2ccc3ncnn3c2)cc2c1C(c1cc(F)ccc1Cl)NC2=O (stereo not shown) [Compound I-1941] | 10 to 100
Cc1cc2ncnn2cc1-c1cc(NC(=O)c2cc(F)cc(C(F)(F)F)c2)c2c(c1)C(=O)NC2c1cc(F)ccc1Cl (stereo not shown) [Compound I-1827] | ≤ 0.1
CC(=O)N1CCC[C@H](Oc2cc(NC(=O)c3cc(F)cc(C(F)(F)F)c3)c3c(c2)C(=O)NC3c2cc(F)ccc2Cl)C1 (single isomer, unassigned) [Compound I-1525] | 0.1 to 0.5
CC(C)(O)c1cc(NC(=O)c2cc(Cl)n3ccccc23)c2c(c1)C(=O)NC2c1cc(F)ccc1C(F)F (stereo not shown) [Compound I-267] | ≤ 0.1
O=C(Nc1cc(-c2cnc(-c3ncco3)nc2)cc2c1C(c1cc(F)ccc1Cl)NC2=O)c1cc(F)cc(C(F)(F)F)c1 (stereo not shown) [Compound I-1464] | ≤ 0.1
O=C(Nc1cc(-c2ccc3ncnn3c2)cc2c1[C@H](c1cc(F)ccc1Cl)NC2=O)c1cc(Cl)cc(Cl)c1 (stereo in doubt) [Compound I-1208] | ≤ 0.1
O=C1N[C@@H](c2cc(F)ccc2Cl)c2c(NC(=O)[C@@H]3CCC[C@H](C(F)(F)F)C3)cc(-c3ccc4ncnn4c3)cc21 [Compound I-2030] | 0.5 to 1
O=C1N[C@@H](c2cc(F)ccc2Cl)c2c(NC(=O)c3csc4ccccc34)cc(Br)cc21 [Compound I-734] | ≤ 0.1
O=C(Nc1cc(Br)cc2c1C(c1cc(F)ccc1Cl)NC2=O)c1cc(F)cc(C(F)(F)F)c1Cl (stereo not shown) [Compound I-809] | 1 to 10
CN1CC=C(c2cc(-c3ccc4ncnn4c3)cc3c2C(c2cc(F)ccc2Cl)NC3=O)CC1 (stereo not shown) [Compound I-2021] | 10 to 100
Cc1ccccc1[C@H]1NC(=O)c2cccc(NC(=O)c3nsc4ccccc34)c21 [Compound I-73] | 0.5 to 1
Cc1ccc2c(c1)N(C(=O)Nc1cccc3c1C(c1cc(F)ccc1Cl)NC3=O)CC2 (stereo not shown) [Compound I-2470] | 0.1 to 0.5
O=C(Nc1cc(Br)cc2c1C(c1c(F)cccc1Cl)NC2=O)c1cc(F)cc(C(F)(F)F)c1 (stereo not shown) [Compound I-681] | 1 to 10
O=C(Nc1cc(C2COC2)nc2c1C(c1cc(F)ccc1Cl)NC2=O)c1cc(F)cc(C(F)(F)F)c1 (stereo not shown) [Compound I-689] | 0.1 to 0.5
O=C1N[C@H](c2cc(F)ccc2Cl)c2c(NC(=O)N3C[C@@](O)(C(F)(F)F)c4cc(F)ccc43)ccc(-n3cccn3)c21 (single isomer, unassigned) [Compound I-2496] | 1 to 10
